Data as given in PubChem BioAssay AID1745844 (Carcinogenic Potency Database (CPDB), 2022).
The source made the active and inactive calls. No rule for the calls is given here.

Test system: rodent lifetime carcinogenesis bioassay, tumor incidence TD50
Assay: carcinogenic potency in animals, long-term in vivo studies, CPDB compilation (AID 1745844)

FC(F)(F)CCl
TD50 (rat, strain Alpk:APfSD, females, by gavage, site: uterus, lesion: adenocarcinoma, dosed 52 weeks, study length 125 weeks): 160 mg/kg/day
TD50 (rat, strain Alpk:APfSD, males, by gavage, site: testis, lesion: interstitial-cell tumor, dosed 52 weeks, study length 125 weeks): 60 mg/kg/day

CCCCCCCCCCCN(C)N=O
TD50 (rat, strain Fischer 344, males, by gavage, site: esophagus, lesion: squamous-cell carcinoma, dosed 30 weeks, study length 65 weeks): 15.4 mg/kg/day
TD50 (rat, strain Fischer 344, males, by gavage, site: liver, lesion: cholangiocarcinoma, dosed 30 weeks, study length 65 weeks): 3.18 mg/kg/day
TD50 (rat, strain Fischer 344, males, by gavage, site: liver, lesion: hepatocellular carcinoma, dosed 30 weeks, study length 65 weeks): 2.38 mg/kg/day
TD50 (rat, strain Fischer 344, males, by gavage, site: lung, lesion: alveolar adenoma, dosed 30 weeks, study length 65 weeks): 2.41 mg/kg/day
TD50 (rat, strain Fischer 344, males, by gavage, site: lung, lesion: alveolar-cell adenoma, dosed 30 weeks, study length 65 weeks): 4.99 mg/kg/day
TD50 (rat, strain Fischer 344, males, by gavage, site: lung, lesion: squamous-cell carcinoma, dosed 30 weeks, study length 65 weeks): 2.37 mg/kg/day
TD50 (rat, strain Fischer 344, males, by gavage, site: stomach, nonglandular, lesion: papilloma, dosed 30 weeks, study length 65 weeks): 15.4 mg/kg/day

C=CF
TD50 (mouse, strain Charles River CD1, females, inhaled, site: Harderian gland, lesion: adenoma, dosed 67 weeks, study length 74 weeks): 4010 mg/kg/day
TD50 (mouse, strain Charles River CD1, females, inhaled, site: liver, lesion: hemangiosarcoma, dosed 67 weeks, study length 74 weeks): 25.4 mg/kg/day
TD50 (mouse, strain Charles River CD1, females, inhaled, site: lung, lesion: alveolar/bronchiolar adenoma, dosed 67 weeks, study length 74 weeks): 54.6 mg/kg/day
TD50 (mouse, strain Charles River CD1, females, inhaled, site: lung, lesion: several types, types named in the paper, dosed 67 weeks, study length 74 weeks): 54.6 mg/kg/day
TD50 (mouse, strain Charles River CD1, females, inhaled, site: mammary gland, lesion: adenocarcinoma, dosed 67 weeks, study length 74 weeks): 13.6 mg/kg/day
TD50 (mouse, strain Charles River CD1, females, inhaled, site: mammary gland, lesion: several types, types named in the paper, dosed 67 weeks, study length 74 weeks): 13.6 mg/kg/day
TD50 (mouse, strain Charles River CD1, males, inhaled, site: Harderian gland, lesion: adenoma, dosed 63 weeks, study length 78 weeks): 1000 mg/kg/day
TD50 (mouse, strain Charles River CD1, males, inhaled, site: liver, lesion: hemangiosarcoma, dosed 63 weeks, study length 78 weeks): 19.4 mg/kg/day
TD50 (mouse, strain Charles River CD1, males, inhaled, site: liver, lesion: hepatocellular adenoma, dosed 63 weeks, study length 78 weeks): 34.6 mg/kg/day
TD50 (mouse, strain Charles River CD1, males, inhaled, site: lung, lesion: alveolar/bronchiolar adenocarcinoma, dosed 63 weeks, study length 78 weeks): 12300 mg/kg/day
TD50 (mouse, strain Charles River CD1, males, inhaled, site: lung, lesion: alveolar/bronchiolar adenoma, dosed 63 weeks, study length 78 weeks): 5.78 mg/kg/day
TD50 (mouse, strain Charles River CD1, males, inhaled, site: lung, lesion: several types, types named in the paper, dosed 63 weeks, study length 78 weeks): 5.78 mg/kg/day
TD50 (rat, strain Charles River CD (Sprague-Dawley), females, inhaled, site: Zymbal's gland, lesion: squamous-cell carcinoma, sebaceous, dosed 52 weeks, study length 52 weeks): 639 mg/kg/day
TD50 (rat, strain Charles River CD (Sprague-Dawley), females, inhaled, site: Zymbal's gland, lesion: squamous-cell carcinoma, sebaceous, dosed 78 weeks, study length 78 weeks): 684 mg/kg/day
TD50 (rat, strain Charles River CD (Sprague-Dawley), females, inhaled, site: Zymbal's gland, lesion: squamous-cell carcinoma, sebaceous, dosed 93 weeks, study length 103 weeks): 1470 mg/kg/day
TD50 (rat, strain Charles River CD (Sprague-Dawley), females, inhaled, site: liver, lesion: hemangiosarcoma, dosed 93 weeks, study length 103 weeks): 16.6 mg/kg/day
TD50 (rat, strain Charles River CD (Sprague-Dawley), females, inhaled, site: liver, lesion: hepatocellular adenoma, dosed 93 weeks, study length 103 weeks): 183 mg/kg/day
TD50 (rat, strain Charles River CD (Sprague-Dawley), females, inhaled, site: liver, lesion: hepatocellular carcinoma, dosed 78 weeks, study length 78 weeks): 1440 mg/kg/day
TD50 (rat, strain Charles River CD (Sprague-Dawley), females, inhaled, site: liver, lesion: hepatocellular carcinoma, dosed 93 weeks, study length 103 weeks): 7770 mg/kg/day
TD50 (rat, strain Charles River CD (Sprague-Dawley), females, inhaled, site: liver, lesion: several types, types named in the paper, dosed 78 weeks, study length 78 weeks): 7380 mg/kg/day
TD50 (rat, strain Charles River CD (Sprague-Dawley), females, inhaled, site: liver, lesion: several types, types named in the paper, dosed 93 weeks, study length 103 weeks): 183 mg/kg/day
TD50 (rat, strain Charles River CD (Sprague-Dawley), males, inhaled, site: Zymbal's gland, lesion: squamous-cell carcinoma, sebaceous, dosed 52 weeks, study length 52 weeks): 213 mg/kg/day
TD50 (rat, strain Charles River CD (Sprague-Dawley), males, inhaled, site: Zymbal's gland, lesion: squamous-cell carcinoma, sebaceous, dosed 93 weeks, study length 103 weeks): 1090 mg/kg/day
TD50 (rat, strain Charles River CD (Sprague-Dawley), males, inhaled, site: liver, lesion: hemangiosarcoma, dosed 93 weeks, study length 103 weeks): 25 mg/kg/day
TD50 (rat, strain Charles River CD (Sprague-Dawley), males, inhaled, site: liver, lesion: hepatocellular adenoma, dosed 93 weeks, study length 103 weeks): 200 mg/kg/day

Nc1nc(N)nc(-c2cc(Cl)ccc2Cl)n1
carcinogen call (rat, strain Wistar, males, in feed, site: liver, lesion: one or several types, types not named, dosed 55 weeks, study length 55 weeks): negative (inactive)

CCCCNC(=O)N(CCCC)N=O
TD50 (rat, strain Donryu, females, in drinking water, site: all sites, lesion: leukemia, dosed 75 weeks, study length 75 weeks): 32 mg/kg/day
TD50 (rat, strain Donryu, females, in drinking water, site: any site (literature study), lesion: several types, types named in the paper, dosed 75 weeks, study length 75 weeks): 2.67 mg/kg/day
TD50 (rat, strain Donryu, females, in drinking water, site: liver, lesion: adenoma, dosed 75 weeks, study length 75 weeks): 303 mg/kg/day
TD50 (rat, strain Donryu, females, in drinking water, site: mammary gland, lesion: adenocarcinoma, dosed 75 weeks, study length 75 weeks): 22.7 mg/kg/day
TD50 (rat, strain Donryu, females, in drinking water, site: mammary tissue, wider than the gland, lesion: fibroadenoma, dosed 75 weeks, study length 75 weeks): 2.23 mg/kg/day
TD50 (rat, strain Donryu, females, in drinking water, site: mammary tissue, wider than the gland, lesion: several types, types named in the paper, dosed 75 weeks, study length 75 weeks): 4.28 mg/kg/day
TD50 (rat, strain Donryu, females, in drinking water, site: uterus, lesion: several types, types named in the paper, dosed 75 weeks, study length 75 weeks): 15.3 mg/kg/day

C=CC1CC=CCC1 (stereo unspecified)
TD50 (mouse, strain B6C3F1, females, by gavage, site: adrenal capsule, lesion: adenoma, NOS, dosed 103 weeks, study length 104 weeks): 1050 mg/kg/day
TD50 (mouse, strain B6C3F1, females, by gavage, site: any site (literature study), lesion: several types, types named in the paper, dosed 103 weeks, study length 104 weeks): 149 mg/kg/day
TD50 (mouse, strain B6C3F1, females, by gavage, site: liver, lesion: hepatocellular adenoma + hepatocellular carcinoma + neoplastic nodule, dosed 103 weeks, study length 104 weeks): 1480 mg/kg/day
TD50 (mouse, strain B6C3F1, females, by gavage, site: lung, lesion: alveolar/bronchiolar adenoma + alveolar/bronchiolar carcinoma, dosed 103 weeks, study length 104 weeks): 19000 mg/kg/day
TD50 (mouse, strain B6C3F1, females, by gavage, site: mesenteric lymph node + multiple organs + small intestine, lesion: malignant lymphoma, lymphocytic type, dosed 103 weeks, study length 104 weeks): 839 mg/kg/day
TD50 (mouse, strain B6C3F1, females, by gavage, site: ovary, lesion: granulosa-cell carcinoma + granulosa-cell tumor + mixed tumor, benign, dosed 103 weeks, study length 104 weeks): 94.4 mg/kg/day
TD50 (mouse, strain B6C3F1, females, by gavage, site: ovary, lesion: granulosa-cell carcinoma + granulosa-cell tumor, dosed 103 weeks, study length 104 weeks): 309 mg/kg/day
TD50 (mouse, strain B6C3F1, females, by gavage, site: ovary, lesion: granulosa-cell tumor, dosed 103 weeks, study length 104 weeks): 361 mg/kg/day
TD50 (mouse, strain B6C3F1, females, by gavage, site: ovary, lesion: mixed tumor, benign, dosed 103 weeks, study length 104 weeks): 106 mg/kg/day
TD50 (mouse, strain B6C3F1, males, by gavage, site: any site (literature study), lesion: several types, types named in the paper, dosed 103 weeks, study length 104 weeks): 307 mg/kg/day
TD50 (mouse, strain B6C3F1, males, by gavage, site: liver, lesion: hepatocellular adenoma + hepatocellular carcinoma + neoplastic nodule, dosed 103 weeks, study length 104 weeks): 1270 mg/kg/day
TD50 (mouse, strain B6C3F1, males, by gavage, site: lung, lesion: alveolar/bronchiolar adenoma + alveolar/bronchiolar carcinoma, dosed 103 weeks, study length 104 weeks): 490 mg/kg/day
TD50 (mouse, strain B6C3F1, males, by gavage, site: lung, lesion: alveolar/bronchiolar adenoma, dosed 103 weeks, study length 104 weeks): 926 mg/kg/day
TD50 (mouse, strain B6C3F1, males, by gavage, site: mesenteric lymph node + multiple organs + spleen, lesion: malignant lymphoma, histiocytic type + malignant lymphoma, mixed type + malignant lymphoma, lymphocytic type, dosed 103 weeks, study length 104 weeks): 623 mg/kg/day
TD50 (rat, strain Fischer 344, females, by gavage, site: any site (literature study), lesion: several types, types named in the paper, dosed 103 weeks, study length 104 weeks): 305 mg/kg/day
TD50 (rat, strain Fischer 344, females, by gavage, site: clitoral gland, lesion: adenoma, NOS + squamous-cell carcinoma, dosed 103 weeks, study length 104 weeks): 580 mg/kg/day
TD50 (rat, strain Fischer 344, females, by gavage, site: liver, lesion: hepatocellular adenoma + hepatocellular carcinoma + neoplastic nodule, dosed 103 weeks, study length 104 weeks): 3.85e+06 mg/kg/day
TD50 (rat, strain Fischer 344, males, by gavage, site: adrenal gland, lesion: pheochromocytoma + pheochromocytoma, malignant, dosed 103 weeks, study length 104 weeks): 159 mg/kg/day
TD50 (rat, strain Fischer 344, males, by gavage, site: any site (literature study), lesion: several types, types named in the paper, dosed 103 weeks, study length 104 weeks): 119 mg/kg/day
TD50 (rat, strain Fischer 344, males, by gavage, site: liver, lesion: hepatocellular adenoma + hepatocellular carcinoma + neoplastic nodule, dosed 103 weeks, study length 104 weeks): 132000 mg/kg/day
TD50 (rat, strain Fischer 344, males, by gavage, site: skin, lesion: squamous-cell carcinoma + squamous-cell papilloma, dosed 103 weeks, study length 104 weeks): 769 mg/kg/day
TD50 (rat, strain Fischer 344, males, by gavage, site: skin, lesion: squamous-cell papilloma, dosed 103 weeks, study length 104 weeks): 935 mg/kg/day
TD50 (rat, strain Fischer 344, males, by gavage, site: testis, lesion: interstitial-cell tumor, dosed 103 weeks, study length 104 weeks): 62.3 mg/kg/day

O=S(=O)(O)c1ccc(N=Nc2c(O)ccc3cc(S(=O)(=O)O)ccc23)cc1
carcinogen call (mouse, strain B6C3F1, females, in feed, site: any site (literature study), lesion: several types, types named in the paper, dosed 103 weeks, study length 104 weeks): negative (inactive)
TD50 (mouse, strain B6C3F1, females, in feed, site: lung, lesion: alveolar/bronchiolar adenoma + alveolar/bronchiolar carcinoma, dosed 103 weeks, study length 104 weeks): 66400 mg/kg/day
TD50 (mouse, strain B6C3F1, males, in feed, site: any site (literature study), lesion: several types, types named in the paper, dosed 103 weeks, study length 103 weeks): 17800 mg/kg/day
TD50 (mouse, strain B6C3F1, males, in feed, site: liver, lesion: hepatocellular adenoma + hepatocellular carcinoma + neoplastic nodule, dosed 103 weeks, study length 103 weeks): 14200 mg/kg/day
TD50 (mouse, strain B6C3F1, males, in feed, site: skin, lesion: fibrosarcoma + fibroma, dosed 103 weeks, study length 103 weeks): 37500 mg/kg/day (inactive)
carcinogen call (mouse, strain Charles River CD (Sprague-Dawley), females, in feed, site: liver, lesion: one or several types, types not named, dosed 80 weeks, study length 80 weeks): negative (inactive)
carcinogen call (mouse, strain Charles River CD (Sprague-Dawley), females, in feed, site: lung, lesion: adenoma, dosed 80 weeks, study length 80 weeks): negative (inactive)
carcinogen call (mouse, strain Charles River CD (Sprague-Dawley), males, in feed, site: liver, lesion: one or several types, types not named, dosed 80 weeks, study length 80 weeks): negative (inactive)
carcinogen call (mouse, strain Charles River CD (Sprague-Dawley), males, in feed, site: lung, lesion: adenoma, dosed 80 weeks, study length 80 weeks): negative (inactive)
TD50 (rat, strain Fischer 344, females, in feed, site: any site (literature study), lesion: several types, types named in the paper, dosed 103 weeks, study length 104 weeks): 9060 mg/kg/day (inactive)
TD50 (rat, strain Fischer 344, males, in feed, site: any site (literature study), lesion: several types, types named in the paper, dosed 103 weeks, study length 104 weeks): 11800 mg/kg/day (inactive)
TD50 (rat, strain Fischer 344, males, in feed, site: liver, lesion: hepatocellular adenoma + hepatocellular carcinoma + neoplastic nodule, dosed 103 weeks, study length 104 weeks): 2520 mg/kg/day
TD50 (rat, strain Not specified, females, in feed, site: any site (literature study), lesion: several types, types named in the paper, dosed 64 weeks, study length 64 weeks): 87.4 mg/kg/day (inactive)
carcinogen call (rat, strain Not specified, females, in feed, site: liver, lesion: one or several types, types not named, dosed 64 weeks, study length 64 weeks): negative (inactive)
TD50 (rat, strain Not specified, males, in feed, site: any site (literature study), lesion: several types, types named in the paper, dosed 64 weeks, study length 64 weeks): 14000 mg/kg/day (inactive)
carcinogen call (rat, strain Not specified, males, in feed, site: liver, lesion: one or several types, types not named, dosed 64 weeks, study length 64 weeks): negative (inactive)
